Source: patent US20120034210A1, “COMPOSITIONS FOR POTENTIATING APOPOSIS SIGNALS IN TUMOUR CELLS” (INSTITUT BERGONIE, priority 2008, published 2012)
“Also recorded” adds a separate entry of the source.

Assays:
Type in all cases: cell-based, human
[1] = test system: CD95; experiment: CD95 expression; settings: 2-APB or BAPTA-AM regimens
Procedure: This technique allowed detecting the presence of a protein on the cell surface. All the steps took place at 4° C. so as to reduce membrane proteins endocytosis and loss of cell labelling.
Plasma membrane of the cells (10^6 cells per marking) was saturated for 5 minutes in 1 ml PBS containing 1% (w/v) BSA (bovine serum albumin) and 1% (v/v) foetal veal serum (FVS). This solution was used for washings and antibody dilutions.
The cells were incubated for 30 minutes with 50 μl primary antibody (anti-Fas DX2 clone at 10 μg/ml), washed twice with the PBS/BSA/FCS solution, then incubated with 50 μl of a secondary antibody coupled with phycoerythrin for 30 minutes. After 3 washings, the cells were re-suspended in 200 μl PBS/BSA/SVF and analysed immediately by flow cytometry (FACsCalibur, BD Biosciences). The fluorescence intensity was analysed with the Cellquest software.

[2] = test system: Raji, BL2, Jurkat cell lines and activated PBL; experiment: Apoptosis % by loss of mitochondrial membrane potential
Procedure: 2 to 4.10^4 cells were deposited in wells in a 96-well plate. The cells were incubated, in the presence of the different reactants for the times specified, at 37° C. in a final volume of 100 or 200 μl. The apoptotic cells were identified in the cellular populations by measuring mitochondrial de-polarisation. […] These potentiometric probes allowed monitoring the variations of the mitochondrial membrane potential. […] Following cell treatment with the different drugs, the former were placed in the presence of TMRM or DIOC6 at 10 nM concentration, for 20 minutes at 37° C. then the fluorescence of the cells was analysed by flow cytometry.

[3] = molecular target: caspase-8; experiment: Caspase-8 activation/cleavage
[4] = test system: T and B leukemia/lymphoma cell lines and activated PBLs treated with FasL; experiment: Fas/CD95-mediated cell death (MTT test)
Procedure: 2 to 4.10^4 cells were deposited in wells in a 96-well plate. The cells were incubated, in the presence of the different reactants for the times specified, at 37° C. in a final volume of 100 or 200 μl.
The MTT test enabled to measure the activity of a mitochondrial enzyme, the dehydrogenase succinate which transforms MTT (or 3-(4,5-dimethylthiazol-2-yl)-2,5-diphenyltetrazolium) bromide originally yellow in colour and soluble, into blue formazan crystals, insoluble in aqueous phase. Upon completion of the different treatments, the living cells were quantified by adding in each well 15 μl PBS (Phosphate Buffered Saline) containing 5 mg/ml MTT. […] Spectrophotometric reading of absorbance was done at 570 nm. The measurement of the optical density is directly proportional to the number of living cells and the percentage of cell death was calculated with the following formula: 100-[(DO treated cells/DO non-treated cells)*100].

[5] = test system: DISC macro-complex (Fas/FADD/Caspase-8); experiment: DISC formation: Fas immunoprecipitation and Western blot; settings: vs untreated cells
Procedure: Cells were incubated with 1 μg/ml APO1-3 for 30 minutes at 4° C. After washing, cells were incubated for 15 minutes at 4° C. (0 minutes) or at 37° C. (15 minutes) and then lysed for 30 minutes at 4° C. in a lysis buffer (25 mM HEPES pH 7.4, 1% Triton X-100, 150 mM NaCl, 2 mM EDTA, a cocktail including protease inhibitors (Sigma)). The lysed cells were then centrifugated for 15 minutes at 15000 rpm in order to eliminate genomic DNA, and the supernatant was kept. The sepharose beads which were coupled with protein A were added to the lysate and the mixture was incubated for 2 hours. The beads were recovered, washed intensively and the immunoprecipitated proteins were re-suspended in a denaturing and reducing buffer (0.01M Tris-HCl pH6.8, 10% glycerol (v/v), 85 mM sodium dodecyl sulfate (SDS), 5% (v/v) […] and 0.005% (w/v) bromophenol blue) then heated at 100° C. for 5 minutes. The samples were deposited in an acrylamide/Bisacrylamide gel and separated by electrophoresis. The proteins were transferred from the gel into a nitrocellulose membrane using a semi-dry medium transfer technique for 2 hours at constant amperage (0.8 mA/cm^2). […] After transfer, the nitrocellulose membrane was saturated with proteins for 30 minutes with a TBST buffer (50 mM Tris pH=8, 0.15M sodium chloride, 0.05% (v/v) Tween-20) containing 5% (w/v) skimmed powdered milk (TBSTM). After washing with TBST, the membrane was incubated for 2 hours with the primary antibody in TBST. The membrane was washed intensively then incubated for one hour with TBST containing the secondary peroxidase-coupled antibody. […] This solution contained a substrate metabolised by peroxidase to yield a luminescent compound, which allowed marking a radiographic film (Amersham).

[6] = test system: CD95; experiment: CD95 aggregation by size exclusion chromatography; settings: Jurkat cells; BAPTA-AM pre-treatment
Source text: In order to validate that CD95 underwent aggregation upon down-modulation of intracellular calcium, the formation the micrometer-sized CD95-containing domain was investigated by using size exclusion chromatography (FIG. 10). Decrease in intracellular calcium allowed the redistribution of a significant proportion of CD95 into heavy weighted fractions (FIG. 10), which confirmed that the slight down-modulation of [Ca^2+]i led to the formation of cluster of CD95. It was also observed that calcium-driven CD95-CAP occurred independently of de novo expression of CD95L since no trace of the membrane-bound ligand was detected. […] Since CD95 clustering is an early step of the CD95 molecular ordering, the impact of intracellular calcium on the initial events of CD95 pathway and on cell death was further assessed.

[7] = test system: CD95; experiment: CD95 capping (CD95-CAP), fluorescence confocal microscopy; settings: leukemic cell lines; culture up to 24 hours
Procedure: The cells were left to adhere on a slide pre-treated with poly-L-lysin (ESCO, VWR) for 5 minutes then incubated with the different reactants. The cells activated with the anti-Fas APO1-3 agonist antibody were washed and marked directly with the anti-mouse secondary antibody coupled with Alexa555 fluorochrome. The cells incubated with Rituximab (anti-CD20) were washed in a cold PBS buffer then fixed with a PBS/4% PFA (paraformaldehyde) solution for 15 min. […] The cells were washed in PBS medium then the slide was dried and the cells were placed in a mounting medium, Fluoroprep (Biomerieux) and analysed by fluorescence confocal microscopy (LSM SP5, Leica, Germany) with an x63 zoom. The DAPI (200 ng/ml) allowed colouring the nuclei.

Compound: CC(=O)OCOC(=O)CN(CC(=O)OCOC(C)=O)c1ccccc1OCCOc1ccccc1N(CC(=O)OCOC(C)=O)CC(=O)OCOC(C)=O [BAPTA-AM, 1,2-bis-(o-Aminophenoxy)ethane-N,N,N′,N′-tetraacetic tetra-(acetoxymethyl) acid Ester]
- expression of CD95 [1]: did not modify the expression of CD95
- potentiation of apoptotic signals mediated by edelfosine or Rituximab ([2]; B lymphoma cell lines, BAPTA-AM 1 μM pre-incubation): allowed potentiating apoptotic signals
- apoptotic signal with Rituximab associated with BAPTA-AM ([2]; BL2 cell line, deprived of Fas receptor, Rituximab resistant): no increase in the apoptotic signal has been observed
- kinetic of caspase-8 cleavage upon CD95L ([3]; T and B-cell lines): accelerated the cleavage of the initiator caspase-8
- caspase-8 activation or mitochondrial depolarization by the agent alone ([3]; during 60 minutes treatment, no CD95L): no trace of caspase-8 activation or mitochondrial depolarization was detected
- sensitisation to the Fas-mediated apoptotic signal (% cell death) ([4]; BAPTA-AM 1 μM pre-incubation then FasL, leukemia/lymphoma cell lines and activated PBLs): sensitised to the Fas-mediated apoptotic signal; also recorded: increase in percentage of cell death
- sensitisation to the Fas-mediated apoptotic signal (% cell death) ([4]; BAPTA-AM 1 μM then FasL, BL2 cell line devoid of endogenous Fas): have not been sensitised
- CD95-mediated apoptotic signal in CD95-resistant cells ([4]; Jurkat-CD95Q257K, pre-incubation with non-cytotoxic doses): restored the CD95-mediated apoptotic signal at a level comparable to the parental cell line
- apoptotic signal by the agent alone ([4]; leukemic cell lines, long-term culture up to 24 hours, no CD95L): did not trigger the apoptotic signal
- DISC formation / FADD recruitment upon CD95 stimulation ([5]; H9, Jurkat, activated PBTs, non-cytotoxic concentrations): dramatically improved the DISC formation; also recorded: induction of DISC formation
- formation of the DISC macro-complex ([5]; H9 cells, BAPTA-AM 1-10 μM or ionomycine 1 μM pre-incubation, then anti-Fas APO1-3 1 μg/ml 15 min 37° C.): enhanced formation of the DISC macro-complex
- CD95 aggregation [6]: formation of the CD95 aggregation
- CD95-CAP formation [7]: drives CD95-CAP
